Laboratory results as given in patent US20250314640A1, “SYSTEMS AND METHODS FOR HIGH THROUGHPUT SINGLE MOLECULE TRACKING IN LIVING CELLS” (EIKON THERAPEUTICS, INC., priority 2022, published 2025).
“Also recorded” adds a separate entry of the source. Where two headings read alike, the source gives them in different places. One block for each compound: values may come before it.

Columns and labels:
ER [1] = target: T1, ER (Homo sapiens, UniProt P03372); test: kinetic SMT (kSMT) of ER after compound addition; assay type: cell-based; design: expressed in transfected cells; conditions: for time course of the overall effect on fbound: up to four-hour window; for t½ of increase in fbound: 100 nM
T1 sequence (P03372 1-595): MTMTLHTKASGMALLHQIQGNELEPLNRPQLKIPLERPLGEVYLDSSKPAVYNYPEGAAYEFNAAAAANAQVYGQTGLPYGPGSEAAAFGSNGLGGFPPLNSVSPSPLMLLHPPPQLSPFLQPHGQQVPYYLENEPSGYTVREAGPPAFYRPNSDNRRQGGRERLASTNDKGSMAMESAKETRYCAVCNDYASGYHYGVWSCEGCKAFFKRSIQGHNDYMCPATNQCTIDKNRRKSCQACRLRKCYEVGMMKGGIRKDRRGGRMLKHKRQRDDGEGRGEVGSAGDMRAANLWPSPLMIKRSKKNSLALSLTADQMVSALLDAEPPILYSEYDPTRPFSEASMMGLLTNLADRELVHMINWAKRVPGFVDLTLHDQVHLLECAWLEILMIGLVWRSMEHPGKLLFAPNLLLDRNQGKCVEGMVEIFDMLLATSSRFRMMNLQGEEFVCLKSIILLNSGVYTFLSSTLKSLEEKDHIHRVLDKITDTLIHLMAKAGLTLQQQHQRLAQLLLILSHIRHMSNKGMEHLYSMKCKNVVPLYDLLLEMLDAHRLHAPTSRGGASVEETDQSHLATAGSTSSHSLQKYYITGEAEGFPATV

androgen receptor (AR) = androgen receptor (AR) (Homo sapiens, UniProt P10275)
Estrogen Receptor (ER) = target: T2, Estrogen Receptor (ER) (Homo sapiens, UniProt P03372); test: htSMT of HaloTag-ER in U2OS cells (fbound, Dfree; bioactive screen and dose titration); assay type: cell-based; conditions: for change in fbound of ER: follow-up experiments after the screen (FIG. 12B, 14A, 16), 100 nM in FIG. 14A
T2 construct: expressed in transfected cells
T2 sequence (P03372 1-595): T1 sequence (P03372 1-595)

ER [2] = target: T1, ER; test: residence time imaging of ER (track length survival); assay type: cell-based; design: expressed in transfected cells; conditions: 100 nM HSP90 inhibition, FIG. 16E; normalized to DMSO
[3] = target: T3, glucocorticoid receptor (GR) (Homo sapiens, UniProt P04150); test: htSMT of Halo-GR in U2OS cells; assay type: cell-based; conditions: 1 μM antagonist, singly or co-administered with the cognate agonist; FIG. 34D
T3 construct: Because U2OS cells express GR endogenously, HaloTag was inserted right before the stop codon of endogenous NR3C1; endogenous in cells; host or cells: U2OS, CRISPR/Cas9 knock-in at the endogenous NR3C1 locus
T3 sequence (P04150 1-777): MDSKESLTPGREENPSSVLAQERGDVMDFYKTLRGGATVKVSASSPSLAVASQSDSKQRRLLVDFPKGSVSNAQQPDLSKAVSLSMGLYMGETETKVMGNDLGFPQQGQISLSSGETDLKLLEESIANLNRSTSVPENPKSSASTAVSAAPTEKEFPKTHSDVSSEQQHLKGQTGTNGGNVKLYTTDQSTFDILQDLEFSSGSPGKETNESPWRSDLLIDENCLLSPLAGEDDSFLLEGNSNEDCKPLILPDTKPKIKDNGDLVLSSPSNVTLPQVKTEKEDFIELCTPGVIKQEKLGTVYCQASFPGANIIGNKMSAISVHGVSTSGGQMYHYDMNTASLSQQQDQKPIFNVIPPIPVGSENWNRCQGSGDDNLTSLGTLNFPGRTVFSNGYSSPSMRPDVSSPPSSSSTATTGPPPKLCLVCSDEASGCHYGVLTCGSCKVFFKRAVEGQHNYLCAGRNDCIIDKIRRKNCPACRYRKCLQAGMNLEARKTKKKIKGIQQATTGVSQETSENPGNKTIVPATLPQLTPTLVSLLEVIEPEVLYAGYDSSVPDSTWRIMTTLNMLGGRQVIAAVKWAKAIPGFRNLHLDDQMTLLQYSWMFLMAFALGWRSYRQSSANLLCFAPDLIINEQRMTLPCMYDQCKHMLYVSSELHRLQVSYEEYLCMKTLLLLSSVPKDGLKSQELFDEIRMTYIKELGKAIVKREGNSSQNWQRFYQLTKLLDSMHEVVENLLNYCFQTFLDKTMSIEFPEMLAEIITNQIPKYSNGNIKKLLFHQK
Experimental: Thermo Fisher) at 500 μg/mL, then clonally isolated. […] Between three and six clones were subsequently tested using SMT conditions for response to a control compound, and the most homogenous clones were subsequently expanded for further testing. Unless otherwise specified, all experiments are with a single, clonally isolated cell line. Because U2OS cells express GR endogenously, HaloTag was inserted right before the stop codon of endogenous NR3C1 via homology-directed repair using CRISPR/Cas9. The HaloTag knock-in was validated by imaging using HTL-JF646 staining and through DNA sequencing.
Where appropriate, compounds were serially diluted in an Echo Qualified 384-Well Low Dead Volume Source Microplate (0018544, Beckman Coulter) to generate dose-titration source material.

ER [4] = target: T1, ER; test: western blot of ER after fulvestrant treatment; assay type: cell-based; design: host or cells: Halo-ER U2OS (transfected fusion), or MCF7 / T47d (endogenous ER); conditions: fulvestrant 24 hours prior to lysis; MCF7, T47d, U2OS Halo-ER; FIG. 20A

Sequence of androgen receptor (AR) (P10275 whole entry): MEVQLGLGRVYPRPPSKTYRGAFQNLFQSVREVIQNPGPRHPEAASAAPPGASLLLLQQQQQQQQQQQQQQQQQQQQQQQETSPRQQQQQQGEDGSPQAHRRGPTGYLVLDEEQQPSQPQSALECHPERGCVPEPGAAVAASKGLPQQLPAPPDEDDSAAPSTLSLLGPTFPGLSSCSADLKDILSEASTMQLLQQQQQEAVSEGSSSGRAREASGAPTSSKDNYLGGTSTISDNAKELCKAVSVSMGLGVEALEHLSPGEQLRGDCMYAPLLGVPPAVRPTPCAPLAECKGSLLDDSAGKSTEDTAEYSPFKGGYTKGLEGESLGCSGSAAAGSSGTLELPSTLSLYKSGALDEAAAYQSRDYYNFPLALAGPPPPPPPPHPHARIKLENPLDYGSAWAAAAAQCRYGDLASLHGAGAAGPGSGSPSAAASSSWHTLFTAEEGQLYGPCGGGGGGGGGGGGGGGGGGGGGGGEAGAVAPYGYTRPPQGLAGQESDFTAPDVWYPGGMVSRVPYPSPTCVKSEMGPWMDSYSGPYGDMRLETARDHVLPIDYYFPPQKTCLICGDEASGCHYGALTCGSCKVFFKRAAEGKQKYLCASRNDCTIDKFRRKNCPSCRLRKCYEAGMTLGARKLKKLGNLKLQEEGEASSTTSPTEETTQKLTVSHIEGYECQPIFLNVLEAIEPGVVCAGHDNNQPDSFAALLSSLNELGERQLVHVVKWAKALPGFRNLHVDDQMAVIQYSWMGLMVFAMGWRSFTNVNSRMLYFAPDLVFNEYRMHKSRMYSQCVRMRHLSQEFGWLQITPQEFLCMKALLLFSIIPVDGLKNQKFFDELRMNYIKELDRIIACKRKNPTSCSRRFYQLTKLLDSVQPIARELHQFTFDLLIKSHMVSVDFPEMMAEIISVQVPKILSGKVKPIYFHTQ

Compound: CC(C)C[C@H](NC(=O)[C@H](CCc1ccccc1)NC(=O)CN1CCOCC1)C(=O)N[C@@H](Cc1ccccc1)C(=O)N[C@@H](CC(C)C)C(=O)[C@@]1(C)CO1 [carfilzomib]
time course of the overall effect on fbound (ER [1]): slowly increasing over the four-hour measurement window

Compound: CC(O)c1cc(C(=O)N[C@@H](C)Cn2ccc(-c3ccc(C#N)c(Cl)c3)n2)[nH]n1 (stereo partly drawn) [Darolutamide]
change in AR chromatin binding (fbound) (androgen receptor (AR)): decrease in chromatin binding

Compound: CC(C)C[C@H](NC(=O)[C@H](Cc1ccccc1)NC(=O)c1cnccn1)B(O)O [bortezomib]
time course of the overall effect on fbound (ER [1]): slowly increasing over the four-hour measurement window

change in fbound of ER (Estrogen Receptor (ER)): increase in fbound
t½ of increase in fbound (ER [1]): 19.3 min
time course of the overall effect on fbound (ER [1]): reached a plateau after an hour
Compound: CC(C)c1cc(-c2n[nH]c(=O)n2-c2ccc3c(ccn3C)c2)c(O)cc1O [ganetespib]
decrease in the total number long binding events (ER [2]): four

change in GR chromatin binding (fbound) [3]: decrease in chromatin binding
Compound: CN(C)c1ccc(C(c2ccc(N(C)C)cc2)c2cc([N+](=O)[O-])ccc2Cl)cc1 [AL082D06]

degradation of ER (ER [4]): leads to the degradation of ER
Compound: C[C@]12CC[C@@H]3c4ccc(O)cc4C[C@@H](CCCCCCCCC[S+]([O-])CCCC(F)(F)C(F)(F)F)[C@H]3[C@@H]1CC[C@@H]2O (stereo partly drawn) [fulvestrant]
change in fbound of ER in bioactive screen (Estrogen Receptor (ER); 1 μM compound versus DMSO, 5,067 molecules, two replicates): increase in fbound; also recorded: significantly increased fbound

change in fbound of ER (Estrogen Receptor (ER)): increase in fbound
t½ of increase in fbound (ER [1]): 17.5 min
time course of the overall effect on fbound (ER [1]): reached a plateau after an hour
Compound: COc1cccc(-c2cc(F)ccc2[C@H]2Cc3nc(N)nc(C)c3C(=O)N2)n1 [HSP990]

change in fbound of ER in bioactive screen (Estrogen Receptor (ER)): significantly increased fbound
maximal increase in ER fbound (Estrogen Receptor (ER)): lower maximal increases in fbound
Compound: 4-hydroxytamoxifen
